Tests used:
[1] = biological target: T1, human recombinant dopamine D2L receptor (Homo sapiens, UniProt P14416); experiment: Dopamine D2L radioligand binding ([3H]Spiperone); settings: compound at 1 μM; for inhibition at 1 µM: read-out: Dopamine (1 μM) D2L, percentage inhibition of ligand binding
T1 construct: expressed in transfected cells; host or cells: CHO
Procedure: To evaluate in radioligand binding assays the activity of compounds of the invention, human recombinant dopamine D2L receptor expressed in Chinese hamster ovary (CHO) cells (Grandy, D. et al, Proc. Natl. Acad. Sci. USA. 86:9762, 1989; Hayes, G. et al, Mol. Endocrinol. 6:920, 1992) in a modified Tris-HCl buffer (50 mM Tris-HCl, pH 7.4, 1.4 mM Ascorbic Acid, 0.001% BSA, 150 mM NaCl) was used. Compounds of the invention were incubated with 0.16 nM [^3H]Spiperone for 120 min. at 25° C. Non-specific binding was estimated in the presence of 10 μM Haloperidol. Receptor proteins were filtered and washed, the filters were then counted to determine [^3H]Spiperone specifically bound. Compounds were screened at 1 μM or lower, using 1% DMSO as vehicle. Biochemical assay results are presented as the percent inhibition of specific binding in Table 3.

[2] = biological target: T2, human recombinant serotonin (5-Hydroxytryptamine) 5-HT6 receptor (Homo sapiens, UniProt P50406); experiment: Serotonin 5-HT6 radioligand binding ([3H]LSD); settings: for inhibition at 0.1 µM / Serotonin (0.1 μM) 5-HT6, percentage inhibition of ligand binding: compound at 0.1 μM; for inhibition at 0.1 µM: read-out: Serotonin (0.1 μM) 5-HT6, percentage inhibition of ligand binding
T2 construct: expressed in transfected cells; host or cells: HeLa
T2 sequence (P50406 whole entry): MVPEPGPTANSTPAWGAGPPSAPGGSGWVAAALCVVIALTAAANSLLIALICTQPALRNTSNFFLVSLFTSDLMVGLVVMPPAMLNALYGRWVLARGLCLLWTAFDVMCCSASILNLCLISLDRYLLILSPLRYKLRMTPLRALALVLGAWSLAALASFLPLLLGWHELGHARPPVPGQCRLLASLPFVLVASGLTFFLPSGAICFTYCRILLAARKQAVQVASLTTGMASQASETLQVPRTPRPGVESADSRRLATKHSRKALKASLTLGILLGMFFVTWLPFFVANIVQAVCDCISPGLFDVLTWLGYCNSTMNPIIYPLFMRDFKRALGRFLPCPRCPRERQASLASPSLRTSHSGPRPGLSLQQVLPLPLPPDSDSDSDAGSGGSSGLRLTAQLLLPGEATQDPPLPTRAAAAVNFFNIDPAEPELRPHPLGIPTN
Procedure: To evaluate in radioligand binding assays the activity of compounds of the invention, human recombinant serotonin (5-Hydroxytryptamine) 5-HT6 receptor expressed in human HeLa cells (Monsma, F. Jr. et al, Mol. Pharmacol. 43:320, 1993) in a modified Tris-HCl buffer (50 mM Tris-HCl, pH 7.4, 150 mM NaCl, 2 mM Ascorbic Acid, 0.001% BSA) was used. Compounds of the invention were incubated with 1.5 nM [3H]Lysergic acid diethylamide (LSD) for 120 min. at 37° C. Non-specific binding was estimated in the presence of 5 μM Serotonin (5-HT). Receptor proteins were filtered and washed, the filters were then counted to determine [3H]LSD specifically bound. Compounds were screened at 1 μM or lower, using 1% DMSO as vehicle. Biochemical assay results are presented as the percent inhibition of specific binding in Table 4.

[3] = biological target: T3, human recombinant serotonin (5-Hydroxytryptamine) 5-HT7 receptor (Homo sapiens, UniProt P34969); experiment: Serotonin 5-HT7 radioligand binding ([3H]LSD); settings: for inhibition at 0.1 µM / Serotonin (0.1 μM) 5-HT7, percentage inhibition of ligand binding: compound at 0.1 μM; for inhibition at 0.1 µM: read-out: Serotonin (0.1 μM) 5-HT7, percentage inhibition of ligand binding
T3 construct: expressed in transfected cells; host or cells: CHO
T3 sequence (P34969 whole entry): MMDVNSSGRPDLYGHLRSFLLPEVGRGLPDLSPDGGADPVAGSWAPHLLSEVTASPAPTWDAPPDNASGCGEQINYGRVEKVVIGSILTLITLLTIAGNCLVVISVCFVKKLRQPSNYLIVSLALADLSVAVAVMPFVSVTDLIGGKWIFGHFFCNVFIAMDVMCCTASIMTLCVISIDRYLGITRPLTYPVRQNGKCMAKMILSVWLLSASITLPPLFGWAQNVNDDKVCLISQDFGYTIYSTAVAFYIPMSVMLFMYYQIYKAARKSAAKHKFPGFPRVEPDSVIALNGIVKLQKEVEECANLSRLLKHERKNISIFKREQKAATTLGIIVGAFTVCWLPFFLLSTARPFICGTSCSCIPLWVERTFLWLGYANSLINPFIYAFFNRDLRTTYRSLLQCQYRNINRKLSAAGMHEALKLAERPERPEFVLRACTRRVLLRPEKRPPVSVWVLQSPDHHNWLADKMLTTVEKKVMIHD
Procedure: To evaluate in radioligand binding assays the activity of compounds of the invention, human recombinant serotonin (5-Hydroxytryptamine) 5-HT7 receptor expressed in Chinese hamster ovary (CHO) cells (Roth, B. et al, J. Pharmacol. Exp. Ther. 268:1403, 1994; Shen, Y. et al, J. Biol. Chem. 268:18200, 1993) in a modified Tris-HCl buffer (50 mM Tris-HCl, pH 7.4, 10 mM MgCl2, 0.5 mM EDTA) was used. Compounds of invention were incubated with 5.5 nM [^3H]Lysergic acid diethylamide (LSD) for 120 min. at 25° C. Non-specific binding was estimated in the presence of 10 μM Serotonin (5-HT). Receptor proteins were filtered and washed, the filters were then counted to determine [^3H]LSD specifically bound. Compounds were screened at 1 μM or lower, using 1% DMSO as vehicle. Biochemical assay results are presented as the percent inhibition of specific binding in Table 4.

[4] = biological target: T4, rat adrenergic α1A receptor (Rattus norvegicus, UniProt P43140); experiment: Adrenergic α1A radioligand binding ([3H]Prazosin); settings: compound at 0.1 μM; for inhibition at 0.1 µM: read-out: Adrenergic (0.1 μM) a1A, percentage inhibition of ligand binding
T4 construct: rat adrenergic α1A receptor obtained from Wistar Rat submaxillary glands; from tissue; host or cells: Wistar rat submaxillary glands
T4 sequence (P43140 1-466): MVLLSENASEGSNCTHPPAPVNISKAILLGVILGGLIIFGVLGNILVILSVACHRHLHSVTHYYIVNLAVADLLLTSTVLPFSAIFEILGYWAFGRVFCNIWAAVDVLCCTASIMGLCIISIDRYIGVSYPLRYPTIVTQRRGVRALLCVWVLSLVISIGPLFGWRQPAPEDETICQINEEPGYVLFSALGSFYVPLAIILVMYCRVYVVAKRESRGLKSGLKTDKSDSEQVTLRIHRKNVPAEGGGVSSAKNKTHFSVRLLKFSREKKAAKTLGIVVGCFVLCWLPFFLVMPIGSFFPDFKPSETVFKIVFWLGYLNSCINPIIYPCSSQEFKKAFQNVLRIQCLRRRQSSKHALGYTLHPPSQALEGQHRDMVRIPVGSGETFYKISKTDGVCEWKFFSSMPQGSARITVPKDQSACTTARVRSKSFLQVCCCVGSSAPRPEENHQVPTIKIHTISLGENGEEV
Procedure: To evaluate in radioligand binding assays the activity of compounds of the invention, rat adrenergic α1A receptor obtained from Wistar Rat submaxillary glands (Michel, A. et al, Br. J. Pharmacol. 98:883, 1989) in a modified Tris-HCl buffer (50 mM Tris-HCl buffer, pH 7.4, 0.5 mM EDTA) was used. Compounds of the invention were incubated with 0.25 nM [^3H]Prazosin for 60 min. at 25° C. Non-specific binding was estimated in the presence of 10 μM phentolamine. Receptor proteins were filtered and washed, the filters were then counted to determine [^3H]Prazosin specifically bound. Compounds of the invention were screened at 1 μM or lower, using 1% DMSO as vehicle. Biochemical assay results are presented as the percent inhibition of specific binding in Table 3.

T1 sequence (P14416 whole entry): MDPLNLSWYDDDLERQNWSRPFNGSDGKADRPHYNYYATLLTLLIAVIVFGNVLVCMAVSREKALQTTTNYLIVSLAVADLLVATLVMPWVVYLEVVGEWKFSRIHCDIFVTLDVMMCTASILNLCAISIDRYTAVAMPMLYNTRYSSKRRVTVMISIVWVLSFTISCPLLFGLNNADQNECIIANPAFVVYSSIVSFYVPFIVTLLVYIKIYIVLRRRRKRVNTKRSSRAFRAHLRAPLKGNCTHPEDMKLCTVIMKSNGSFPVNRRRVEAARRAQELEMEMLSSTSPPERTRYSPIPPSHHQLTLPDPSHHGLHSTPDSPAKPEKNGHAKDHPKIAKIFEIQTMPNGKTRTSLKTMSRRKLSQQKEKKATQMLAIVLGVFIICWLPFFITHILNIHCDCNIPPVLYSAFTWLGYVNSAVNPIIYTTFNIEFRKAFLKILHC

Structure (SMILES) | inhibition at 1 µM [1] [%] | inhibition at 0.1 µM [2] [%] | inhibition at 1 µM ([2]; compound at 1 μM, read-out: Serotonin (1 μM) 5-HT6, percentage inhibition of ligand binding) [%] | inhibition at 1 µM ([3]; compound at 1 μM, read-out: Serotonin (1 μM) 5-HT7, percentage inhibition of ligand binding) [%] | inhibition at 0.1 µM [4] [%] | inhibition at 0.1 µM [3] [%] | Dopamine (1 μM) D2L, percentage inhibition of ligand binding [1] [%] | Adrenergic (0.1 μM) a1A, percentage inhibition of ligand binding [4] [%] | Serotonin (0.1 μM) 5-HT6, percentage inhibition of ligand binding [2] [%] | Serotonin (0.1 μM) 5-HT7, percentage inhibition of ligand binding [3] [%]
Cc1cc2c3c(c1)c1c(n3CC(c3ccc(F)cc3)C2)CCN(C)C1 (stereo not shown) [Compound 3] | 96 | 80 | 96 | 53 |  |  |  |  |  | 
Cc1cc2c3c(c1)c1c(n3CC(C)(c3ccc(C)nc3)OC(C)C2)CCN(C)C1 (stereo not shown) [Compound 160] | 7 | -10 |  |  | -5 | 14 |  |  |  | 
Cc1cc2c3c(c1)c1c(n3CC(C)(c3ccc(C)nc3)OC2C)CCN(C)C1 (stereo not shown) [Compound 161] |  |  |  |  |  |  | 10 | −8 | −8 | −8
Cc1cc2c3c(c1)c1c(n3C[C@@](C)(c3ccncc3)O[C@H]2C)CCN(C)C1 [Compound 162] | 11 | -8 |  |  | -3 | 5 |  |  |  | 
Cc1cc2c3c(c1)c1c(n3C[C@](C)(c3ccncc3)O[C@H]2C)CCN(C)C1 [Compound 163] | 15 | 8 |  |  | -17 | -3 |  |  |  | 
Cc1cc2c3c(c1)c1c(n3CC(C)(c3ccc(C)nc3)OC2C)CCN(C)C1 (stereo not shown) [Compound 164] |  |  |  |  |  |  | 3 | −7 | −9 | −12
Cc1cc2c3c(c1)c1c(n3CC(C)(c3ccncc3)OC(C)C2)CCN(C)C1 (stereo not shown) [Compound 165] | 10 | 10 |  |  | 11 | -2 |  |  |  | 

Reference: patent US9193728B2, “Fused tetracyclic pyrido [4,3-B] indole and pyrido [3,4-B] indole derivatives and methods of use” (Medivation Technologies, Inc., priority 2010, dated 2015)
